Measured values from patent US20120245201A1, “Isopropylphenidate for Treatment of Attention-Deficit/Hyperactivity Disorder and Fatigue-Related Disorders and Conditions” (priority 2009, published 2012).

What was measured:
[1] = molecular target: T1, human dopamine (DA) transporter (DAT) (Homo sapiens, UniProt Q01959); assay: Dopamine transporter binding assay ([3H]GBR 12935, CEREP); details: HCl salts
T1 construct: host or cells: CHO cells, cell membrane homogenates
Protocol: Transporter Binding and Cellular Uptake. All described monoamine transporter binding studies as well as cellular uptake assays were performed in duplicate by CEREP (Celle l'Evescault, France) and are described below. Further details of all assays performed may be accessed at the CEREP web site (world-wide-web at cerep.com). Cellular-based assays were conducted to provide complementary in vitro functional measures to complement the standard transporter assays as well as to provide direct comparisons of the homologs IPH with MPH with regard to DA, NE, and 5-HT uptake in synaptosomal preparations. […]
Dopamine Transporter Binding Assay. Evaluation of the affinity of both compounds for the human dopamine (DA) transporter (DAT) in transfected Chinese Hamster Ovary (CHO) cells was determined in a validated radioligand binding assay. […] Nonspecific binding was determined in the presence of 10 μM N-[1-(Benzo[b]thien-2-yl-cyclohexyl)] piperidine (BTCP). […] The filters were then dried and measured for radioactivity with a scintillation counter (TopCount, Packard) using a liquid scintillation cocktail (Microscint 0, Packard). The results of DAT binding experiments as well as the other transporter assays described in the following sections were expressed as a percent inhibition of the control radioligand specific binding. […]

[2] = molecular target: T2, human norepinephrine (NE) transporter (NET) (Homo sapiens, UniProt P23975); assay: Norepinephrine transporter binding assay ([3H]nisoxetine, CEREP)
T2 construct: host or cells: CHO cells, cell membrane homogenates
T2 sequence (P23975 whole entry): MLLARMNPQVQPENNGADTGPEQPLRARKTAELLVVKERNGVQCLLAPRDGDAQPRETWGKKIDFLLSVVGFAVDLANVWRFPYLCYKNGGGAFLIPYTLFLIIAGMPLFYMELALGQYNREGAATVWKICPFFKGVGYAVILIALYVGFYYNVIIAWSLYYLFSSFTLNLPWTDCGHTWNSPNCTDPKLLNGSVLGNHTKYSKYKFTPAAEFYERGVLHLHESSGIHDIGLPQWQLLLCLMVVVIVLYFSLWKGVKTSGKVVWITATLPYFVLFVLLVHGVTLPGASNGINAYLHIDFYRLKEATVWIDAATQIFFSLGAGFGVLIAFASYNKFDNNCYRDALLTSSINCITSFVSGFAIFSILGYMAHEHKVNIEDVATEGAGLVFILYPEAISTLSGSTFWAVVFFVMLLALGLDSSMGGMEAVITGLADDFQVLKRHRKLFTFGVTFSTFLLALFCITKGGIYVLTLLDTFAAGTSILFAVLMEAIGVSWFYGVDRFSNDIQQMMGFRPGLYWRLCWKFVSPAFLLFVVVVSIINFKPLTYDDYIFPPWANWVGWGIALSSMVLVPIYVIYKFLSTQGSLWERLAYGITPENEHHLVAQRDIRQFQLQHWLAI
Protocol: (§1) Transporter Binding and Cellular Uptake. All described monoamine transporter binding studies as well as cellular uptake assays were performed in duplicate by CEREP (Celle l'Evescault, France) and are described below. Further details of all assays performed may be accessed at the CEREP web site (world-wide-web at cerep.com). Cellular-based assays were conducted to provide complementary in vitro functional measures to complement the standard transporter assays as well as to provide direct comparisons of the homologs IPH with MPH with regard to DA, NE, and 5-HT uptake in synaptosomal preparations.
Norepinephrine Transporter Binding Assay. Evaluation of the affinity of the two compounds for the human norepinephrine (NE) transporter (NET) in transfected CHO cells was determined in a radioligand assay analogous to the procedures described for the DAT assay. Cell membrane homogenates were incubated for 90 min at 4° C. with 1 nM [^3H]nisoxetine in the absence or presence of each test compound in a standard buffer solution. Nonspecific binding was determined in the presence of 1 μM of desipramine. Following incubation, the samples were filtered rapidly under vacuum and rinsed several times with a buffer solution. The filters were then dried and radioactivity counts were obtained. The results are expressed as percent inhibition of the control radioligand specific binding. The standard reference compound was the tricyclic antidepressant (TCA) protriptyline, which was tested in each experiment at several concentrations to generate a competition curve from which its IC50 was calculated.

[3] = molecular target: T3, human serotonin 5-HT transporter (SERT) (Homo sapiens, UniProt P31645); assay: Serotonin transporter binding assay ([3H]imipramine, CEREP); details: ligand [3H]imipramine, transfected CHO cells, HCl salts
T3 construct: host or cells: CHO cells, cell membrane homogenates
T3 sequence (P31645 whole entry): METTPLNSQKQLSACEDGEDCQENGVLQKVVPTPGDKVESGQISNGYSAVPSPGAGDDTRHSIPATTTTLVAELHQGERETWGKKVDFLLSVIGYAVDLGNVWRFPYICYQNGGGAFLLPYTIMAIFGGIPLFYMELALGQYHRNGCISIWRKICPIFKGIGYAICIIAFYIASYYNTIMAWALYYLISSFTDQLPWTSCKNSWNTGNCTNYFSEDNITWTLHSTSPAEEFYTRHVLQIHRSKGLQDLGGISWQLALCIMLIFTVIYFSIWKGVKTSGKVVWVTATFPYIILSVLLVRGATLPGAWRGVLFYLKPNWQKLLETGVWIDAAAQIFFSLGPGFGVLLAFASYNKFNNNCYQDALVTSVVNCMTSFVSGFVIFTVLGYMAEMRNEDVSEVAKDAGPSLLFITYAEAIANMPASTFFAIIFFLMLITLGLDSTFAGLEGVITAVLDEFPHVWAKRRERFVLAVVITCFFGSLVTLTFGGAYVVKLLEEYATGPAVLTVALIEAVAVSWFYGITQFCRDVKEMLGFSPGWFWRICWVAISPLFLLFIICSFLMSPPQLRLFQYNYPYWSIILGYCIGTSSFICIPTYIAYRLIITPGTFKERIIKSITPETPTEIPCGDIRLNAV
Protocol: as §1, with “preparations. The concentration of MPH, EPH, and IPH utilized in these studies was 10 μM, which represents a generally accepted screening concentration when evaluating compounds in this manner.” for “preparations.”
Serotonin Transporter Binding Assay. […] Briefly, cell membrane homogenates were incubated for 90 min at 4° C. with 2 nM of [^3H]imipramine in the absence and presence of each of the assessed compounds. Nonspecific binding was determined in the presence of 10 μM of imipramine. […] The filters were then dried and measured for radioactivity via scintillation counter. The standard reference compound was the TCA imipramine, which was tested in each experiment at several concentrations to generate a competition curve from which its IC50 was calculated.

[4] = test system: NE uptake, synaptosomes prepared from the rat hypothalamus; assay: Norepinephrine uptake into synaptosomes; assay type: cell-based
Protocol: as §1

[5] = test system: human intestinal microsomes (HIM); assay: Hydrolysis to ritalinic acid by human intestinal microsomes; assay type: in vitro ADME; details: 1 mM substrate, 0.2 mg/ml HIM, 37° C., 60 min
Protocol: FIG. 2—Hydrolysis of methylphenidate (MPH) and isopropylphenidate (IPH) by recombinant human CES1, HLM, HIM. After incubation with CES 1 transfected human cells, HLM, and HIM at 37° C. for 60 min, the metabolite RA produced via hydrolysis of MPH and IPH was determined by HPLC. Data are presented as mean±SEM of 3 to 6 independent experiments.
Determination of Relative Hydrolytic Rates of MPH and IPH. The assessment of relative rates of hydrolysis of the two ester compounds utilized both cell culture and human liver microsomes (HLM) and human intestinal microsomes (HIM). The human carboxylesterase 1 (hCES1) s9 fraction was prepared utilizing a novel method developed in the inventors' laboratory previously (Zhu et al., 2008). Hydrolysis of IPH and MPH by hCES1, HLM, and human intestinal microsomes was assessed by incubating the substrates with the respective enzymes and measuring the formation of the major metabolite RA formed via ester hydrolysis. Briefly, 50 μl of freshly prepared substrates (IPH and MPH) was mixed with 50 μl of enzymes in 1.5 ml Eppendorf tubes yielding a total volume of 100 μl. […] Concentrations of the primary hydrolytic product of the two compounds, RA were determined utilizing a validated HPLC method previously described.

T1 sequence (Q01959 whole entry): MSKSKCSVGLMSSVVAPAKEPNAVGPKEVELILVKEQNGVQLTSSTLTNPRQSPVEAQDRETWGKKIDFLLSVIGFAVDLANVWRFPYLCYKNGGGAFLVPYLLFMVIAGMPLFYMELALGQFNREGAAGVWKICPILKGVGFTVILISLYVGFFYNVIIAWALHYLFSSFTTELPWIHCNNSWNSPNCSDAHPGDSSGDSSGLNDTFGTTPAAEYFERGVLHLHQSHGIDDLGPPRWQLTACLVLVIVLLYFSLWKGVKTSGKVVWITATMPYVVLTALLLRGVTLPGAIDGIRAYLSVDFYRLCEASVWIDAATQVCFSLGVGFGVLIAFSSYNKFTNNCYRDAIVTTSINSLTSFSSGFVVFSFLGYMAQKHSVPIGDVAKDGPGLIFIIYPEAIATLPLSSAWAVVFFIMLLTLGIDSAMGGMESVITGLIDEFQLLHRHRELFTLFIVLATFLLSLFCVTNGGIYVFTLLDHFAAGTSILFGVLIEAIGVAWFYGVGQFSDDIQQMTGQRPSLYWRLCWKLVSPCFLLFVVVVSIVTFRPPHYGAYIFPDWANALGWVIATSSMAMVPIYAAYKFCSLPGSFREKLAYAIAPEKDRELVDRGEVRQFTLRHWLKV

SMILES	% inhibition of control specific binding, DAT (h) ([1]; 10 μM, ligand [3H]GBR-12935, transfected CHO cells)	NET affinity of IPH relative to MPH ([2]; 10 μM, inhibition of specific control binding)	% inhibition of control specific binding, NET (h) ([2]; 10 μM, ligand [3H]nisoxetine, transfected CHO cells, HCl salts)	% inhibition of control specific binding, SERT (h) ([3]; 10 μM)	% inhibition of control specific binding; [3H]NE incorporation into synaptosomes ([4]; 10 μM)	catalytic activity of HIM on hydrolysis [5]	inhibition at 10 µM ([1]; ligand [3H]GBR-12935, transfected CHO cells, read-out: % inhibition of control specific binding, DAT (h))	inhibition at 10 µM ([2]; ligand [3H]nisoxetine, transfected CHO cells, HCl salts, read-out: % inhibition of control specific binding, NET (h))	inhibition at 10 µM ([3]; read-out: % inhibition of control specific binding, SERT (h))	inhibition at 10 µM ([4]; read-out: % inhibition of control specific binding, [3H]NE incorporation into synaptosomes)
CC(C)OC(=O)C(c1ccccc1)C1CCCCN1 (racemic) [IPH, dl-threo-α-phenyl-2-piperidineacetic acid isopropyl ester]	97%	one-third	27%	20%	62%	extremely low				
COC(=O)C(c1ccccc1)C1CCCCN1 (racemic) [MPH, dl-threo-methylphenidate, reference compound]						extremely low	101%	88%	6%	117%
